# According to patent US11472778B2, “Hepatitis C virus NS3/4A protease inhibitors” (priority 2017, dated 2022):
# Read-outs that look alike come from different tables or passages of the source.
# How the values were obtained:
# GT3a NS3/4A protease = biological target: T1, GT3a NS3/4A protease (Hepatitis C virus genotype 3a, UniProt Q81495); test: biochemical; settings: for Ki (Fold change) GT3a NS3/4A Protease: Table 3, Ki GT3a relative to GT1a WT
# T1 construct: drug-resistant variant D168A, and GT3a NS3/4A protease; made in house; host or cells: Escherichia coli BL21(DE3)
# T1 sequence (Q81495 1033-1214): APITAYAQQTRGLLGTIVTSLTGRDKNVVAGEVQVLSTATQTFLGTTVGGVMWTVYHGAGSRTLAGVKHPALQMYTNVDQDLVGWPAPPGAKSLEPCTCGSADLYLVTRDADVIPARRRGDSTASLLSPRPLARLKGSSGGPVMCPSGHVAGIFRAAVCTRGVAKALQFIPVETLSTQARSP
# Procedure: For each assay, 2 nM of NS3/4A protease (GT1, D168A and GT3) was pre-incubated at room temperature for 1 h with increasing concentration of inhibitors in assay buffer [50 mM Tris, 5% glycerol, 10 mM DTT, 0.6 mM LDAO, and 4% dimethyl sulfoxide]. Inhibition assays were performed in nonbinding surface 96-well black half-area plates (Corning) in a reaction volume of 60 μt. […] Three independent data sets were collected for each inhibitor with each protease construct.
# [1] = rcm bond, 15-membered ring, Zhan 1b, 1,2-DCE, 70.0 °C
# [2] = tested on: wild-type HCV replicon in Huh7 cells; test: Cell-based drug susceptibility (replicon) assay, wild-type; settings: Hepatitis C virus, read-out: Replicon EC50 (nM) WT
# Method in brief: (§1)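 Replication is assessed in Huh7 cells electroporated with chimeric replicon RNA (Con1 1b luciferase reporter, H77 1a NS3) under escalating protease inhibitor concentrations, measuring relative light units at 96 h.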
# [3] = tested on: HCV replicon D168V variant in Huh7 cells; test: microbe, parasite or virus in culture; assay type: cell-based, Hepatitis C virus; settings: for EC50: Hepatitis C virus; for Replicon EC50 (Fold change) D168V: Table 4, relative to WT replicon
# Method in brief: as §1
# [4] = biological target: T2, GT1a D168A NS3/4A protease (UniProt P27958, C1185S/D1194A, species not given); assay type: biochemical, Hepatitis C virus; settings: read-out: Ki (nM) GT1a D168A NS3/4A Protease
# T2 construct: Ki (nM) GT1a D168A NS3/4A Protease
# Method in brief: (§2)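 NS3/4A protease (2 nM; wild-type GT1a or D168A) pre-incubated 1 h at room temperature with increasing inhibitor in 50 mM Tris pH 7.5, 5% glycerol, 10 mM DTT, 0.6 mM LDAO, 4% DMSO. Ki from three independent data sets per construct; ΔG=RTlnKi.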
# [5] = biological target: T3, wild-type GT1a NS3/4A protease (UniProt P27958, C1185S, species not given); assay type: biochemical, Hepatitis C virus; settings: read-out: Ki (nM) GT1a WT NS3/4A Protease
# T3 construct: Ki (nM) GT1a WT NS3/4A Protease
# Method in brief: as §2
# [6] = biological target: GT1a D168A NS3/4A protease; assay type: biochemical, Hepatitis C virus; settings: Table 3; Ki D168A relative to GT1a WT
# Method in brief: as §2
# [7] = tested on: HCV replicon D168A variant in Huh7 cells; test: microbe, parasite or virus in culture; assay type: cell-based, Hepatitis C virus; settings: for EC50: Hepatitis C virus; for Replicon EC50 (Fold change) D168A: Table 4, relative to WT replicon
# Method in brief: as §1
# [8] = tested on: HCV replicon R155K variant in Huh7 cells; test: microbe, parasite or virus in culture; assay type: cell-based, Hepatitis C virus; settings: for EC50: Hepatitis C virus; for Replicon EC50 (Fold change) R155K: Table 4, relative to WT replicon
# Method in brief: as §1
# [9] = tested on: HCV replicon A156T variant in Huh7 cells; test: microbe, parasite or virus in culture; assay type: cell-based, Hepatitis C virus; settings: for EC50: Hepatitis C virus; for Replicon EC50 (Fold change) A156T: Table 4, relative to WT replicon
# Method in brief: as §1
# [10] = Huh-7, 96 h, read-out: Replicon EC50 (nM) D168V, Table 2, Huh7 cells, luciferase 96 h
# [11] = Huh-7, read-out: Replicon EC50 (nM) D168V, Table 4
# [12] = Huh-7, 96 h, read-out: Replicon EC50 (nM) D168A, Table 2, Huh7 cells, luciferase 96 h
# [13] = Huh-7, read-out: Replicon EC50 (nM) D168A, Table 4
# [14] = Huh-7, read-out: Replicon EC50 (nM) R155K, Table 4
# [15] = Huh-7, 96 h, read-out: Replicon EC50 (nM) A156T, Table 2, Huh7 cells, luciferase 96 h
# [16] = Huh-7, read-out: Replicon EC50 (nM) A156T, Table 4
SMILES,Ki (GT3a NS3/4A protease),Ki (Fold change) GT3a NS3/4A Protease (GT3a NS3/4A protease),"EC50 ([2]; Huh-7, Table 4)","EC50 [3, 10]","EC50 [3, 11]",Replicon EC50 (Fold change) D168V [3],Ki ([4]; Table 1),Ki ([4]; Table 3),Ki ([5]; Table 1),Ki ([5]; Table 3),Ki (Fold change) GT1a D168A NS3/4A Protease [6],"EC50 [7, 12]","EC50 [7, 13]",Replicon EC50 (Fold change) D168A [7],"EC50 [8, 14]",Replicon EC50 (Fold change) R155K [8],"EC50 [9, 15]","EC50 [9, 16]",Replicon EC50 (Fold change) A156T [9],also measured
"CCc1nc2ccc(OC)cc2nc1O[C@@H]1C[C@H]2C(=O)N[C@]3(C(=O)NS(=O)(=O)C4(C)CC4)C[C@H]3/C=C\CCCCC[C@H](NC(=O)OC(C)(C)C)C(=O)N2C1 [Compound 19a, tert-Butyl ((2R,6S,13aS,14aR,16aS,Z)-2-((3-ethyl-7-methoxyquinoxalin-2-yl)oxy)-14a-(((1-methylcyclopropyl)sulfonyl)carbamoyl)-5,16-dioxo-1,2,3,5,6,7,8,9,10,11,13a,14,14a,15,16,16a-hexadecahydrocyclopropa[e]pyrrolo[1,2-a][1,4]diazacyclopentadecin-6-yl)carbamate]",171 nM,(94) fold,0.43 nM,6.42 nM,6.42 nM,(15) fold,55.2 nM,55.2 ± 5.3 nM,1.82 nM,1.82 nM,(30) fold,4.97 nM,4.97 nM,(12) fold,1.8 nM,(4) fold,4.52 nM,4.52 nM,(11) fold,"ring closure, isolated yield ([1]; from C=CCCCCC[C@H](NC(=O)OC(C)(C)C)C(=O)N1C[C@H](Oc2nc3cc(OC)ccc3nc2CC)C[C@H]1C(=O)N[C@]1(C(=O)NS(=O)(=O)C2(C)CC2)C[C@H]1C=C, 6.0 mM): 71%; EC50 ([2]; Huh-7, 96 h, Table 2, Huh7 cells, luciferase 96 h): 0.43 nM; EC50 ([8]; Huh-7, 96 h, read-out: Replicon EC50 (nM) R155K, Table 2, Huh7 cells, luciferase 96 h): 1.8 nM"
"COc1ccc2nc(Cl)c(O[C@@H]3C[C@H]4C(=O)N[C@]5(C(=O)NS(=O)(=O)C6CC6)C[C@H]5/C=C\CCCCC[C@H](NC(=O)OC(C)(C)C)C(=O)N4C3)nc2c1 [Compound 18c, tert-Butyl ((2R,6S,13aS,14aR,16aS,Z)-2-((3-chloro-7-methoxyquinoxalin-2-yl)oxy)-14a-((cyclopropylsulfonyl)carbamoyl)-5,16-dioxo-1,2,3,5,6,7,8,9,10,11,13a,14,14a,15,16,16a-hexadecahydrocyclopropa[e]pyrrolo[1,2-a][1,4]diazacyclopentadecin-6-yl)carbamate]",67.5 nM,(63) fold,0.16 nM,< 1 nM,0.73 nM,(5) fold,39.8 nM,39.8 ± 3.4 nM,1.07 nM,1.07 nM,(37) fold,< 2 nM,1.42 nM,(9) fold,0.44 nM,(3) fold,16.2 nM,16.2 nM,(101) fold,"ring closure, isolated yield ([1]; 6.3 mM): 50%"
"COc1ccc2nc(Cl)c(O[C@@H]3C[C@H]4C(=O)N[C@]5(C(=O)NS(=O)(=O)C6(C)CC6)C[C@H]5/C=C\CCCCC[C@H](NC(=O)OC(C)(C)C)C(=O)N4C3)nc2c1 [Compound 19c, tert-Butyl ((2R,6S,13aS,14aR,16aS,Z)-2-((3-chloro-7-methoxyquinoxalin-2-yl)oxy)-14a-(((1-methylcyclopropyl)sulfonyl)carbamoyl)-5,16-dioxo-1,2,3,5,6,7,8,9,10,11,13a,14,14a,15,16,16a-hexadecahydrocyclopropa[e]pyrrolo[1,2-a][1,4]diazacyclopentadecin-6-yl)carbamate]",53.6 nM,(48) fold,0.18 nM,,0.49 nM,(3) fold,77.7 nM,77.7 ± 6.1 nM,1.11 nM,1.11 nM,(70) fold,< 2 nM,1.07 nM,(6) fold,0.4 nM,(2) fold,8.86 nM,8.86 nM,(49) fold,"ring closure, isolated yield ([1]; 5.0 mM): 86%"
